Data on 10 compounds can be found in US11117860B2, “Phenyl urea derivatives as n-formyl peptide receptor modulators” (Allergan, Inc., priority 2016, dated 2021).

By EC50 is commonly meant the concentration needed to bring the measured effect to its halfway point.

Assay [1] has as its target T1, FPR2 (Homo sapiens, UniProt P25090).
T1 construct: expressed in transfected cells
T1 sequence (P25090 1-351): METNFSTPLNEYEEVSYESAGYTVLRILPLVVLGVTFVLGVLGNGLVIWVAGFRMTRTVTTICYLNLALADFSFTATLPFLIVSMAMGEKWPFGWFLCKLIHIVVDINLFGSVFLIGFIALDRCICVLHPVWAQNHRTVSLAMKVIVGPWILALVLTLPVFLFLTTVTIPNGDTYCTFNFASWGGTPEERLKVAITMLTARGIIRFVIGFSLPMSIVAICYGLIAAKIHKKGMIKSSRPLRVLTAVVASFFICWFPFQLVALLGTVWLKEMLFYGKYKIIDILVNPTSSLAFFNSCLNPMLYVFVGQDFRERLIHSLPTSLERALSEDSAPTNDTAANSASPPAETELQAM
Nature of the assay: compound-induced calcium activity on FLIPR Tetra, CHO-Gα16 cells stably expressing FPR2. Type of assay: cell-based. Further details: FPR2 Ga16-CHO (% eff): unit not given here. As to conditions: for FPR2 Ga16-CHO (% eff): efficacy value in parentheses; for EC50: tested at 0.61 to 10,000 nM, read-out: FPR2 Ga16-CHO EC50. As to the method: (§1) CHO-Gα16 cells stably expressing FPR1 or FPR2 were cultured in (Ham's F12 nutrient media, 10% fetal bovine serum, 1% PSA (penicillin, streptomycin, amphotericin B antiobiotic/antimycotic), 400 μg/ml geneticin and 50 μg/ml hygromycin). In general, the day before the experiment, 18,000 cells/well were plated in a 384-well clear bottom poly-D-lysine coated plate. The following day the screening compound-induced calcium activity was assayed on the FLIPR^Tetra. The drug plates were prepared in 384-well microplates using the EP3 and the MultiPROBE robotic liquid handling systems. Compounds were tested at concentrations ranging from 0.61 to 10,000 nM. Results are expressed as EC50 (nM) and efficacy values.

Assay [2] has as its target T2, FPR1 (Homo sapiens, UniProt P21462).
T2 construct: expressed in transfected cells
T2 sequence (P21462 1-350): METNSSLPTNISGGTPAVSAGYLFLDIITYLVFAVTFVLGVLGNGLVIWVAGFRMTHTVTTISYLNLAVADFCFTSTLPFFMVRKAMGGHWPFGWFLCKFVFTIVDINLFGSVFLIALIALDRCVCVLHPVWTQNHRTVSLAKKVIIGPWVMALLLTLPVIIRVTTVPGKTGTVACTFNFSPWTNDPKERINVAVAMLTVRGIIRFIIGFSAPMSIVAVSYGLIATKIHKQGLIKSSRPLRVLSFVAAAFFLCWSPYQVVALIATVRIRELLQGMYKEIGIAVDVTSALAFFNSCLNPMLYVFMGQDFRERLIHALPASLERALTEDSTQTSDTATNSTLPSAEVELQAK
Nature of the assay: compound-induced calcium activity on FLIPR Tetra, CHO-Gα16 cells stably expressing FPR1. Type of assay: cell-based. As to conditions: for FPR1 Ga16-CHO (% eff): efficacy value in parentheses; for FPR1 Ga16-CHO (% eff) / EC50: CHO-Gα16 cells stably expressing FPR1, calcium activity; for Ratio FPR2:FPR1 (EC50): ratio of EC50 for agonizing FPR2 to EC50 for agonizing FPR1 (selectivity for FPR1); for EC50: tested at 0.61 to 10,000 nM, read-out: FPR1 Ga16-CHO EC50. On the procedure:
as §1

For `CC(C)CC(C(=O)O)C(C)NC(=O)Nc1ccc(Br)cc1` (racemic) [Compound 102, 2-(1-(3-(4-bromophenyl)ureido)ethyl)-4-methylpentanoic acid], the “FPR2 Ga16-CHO (% eff)” value in assay [1] was 0.63. In assay [2], the FPR1 Ga16-CHO (% eff) is 92% and the “Ratio FPR2:FPR1 (EC50)” value was 22.
As for `CC(C)CC(C(=O)O)C(C)NC(=O)Nc1ccc(Br)cc1` (single isomer, unassigned) [Compound 106, 2-(1-(3-(4-bromophenyl)ureido)ethyl)-4-methylpentanoic acid], in assay [1], the “FPR2 Ga16-CHO (% eff)” value is on record as 0.75 and the concentration giving a half-maximal response (EC50) worked out at 9940 nM. In addition, in assay [2], the EC50 worked out at 98 nM, the FPR1 Ga16-CHO (% eff) was determined as 91% and the “Ratio FPR2:FPR1 (EC50)” value is on record as 101.
On the same counts, the results for `CC(C)CC(C(=O)OC(C)(C)C)C(C)NC(=O)Nc1ccc(Br)cc1` (single isomer, unassigned) [Compound 101, tert-butyl 2-(1-(3-(4-bromophenyl)ureido)ethyl)-4-methylpentanoate] are 0.73, no less than 10000 nM, no less than 10000 nM, 66% and 1.
On to `CC(C)CC(C(=O)O)C(C)NC(=O)Nc1ccc(Br)cc1` (single isomer, unassigned) [Compound 103, 2-(1-(3-(4-bromophenyl)ureido)ethyl)-4-methylpentanoic acid], for which the EC50 came to 41 nM in assay [1] and 0.52 nM in assay [2].
As to `CC(C)CC(C(=O)O)C(C)NC(=O)Nc1ccc(Br)cc1` (single isomer, unassigned) [Compound 105, 2-(1-(3-(4-bromophenyl)ureido)ethyl)-4-methylpentanoic acid], in assay [1], the “FPR2 Ga16-CHO (% eff)” value was 0.56 and the EC50 worked out at 3240 nM. In assay [2], the EC50 is 13 nM, the FPR1 Ga16-CHO (% eff) worked out at 103% and the “Ratio FPR2:FPR1 (EC50)” value amounted to 249.
On to `CC(C)CC(C(=O)O)C(C)NC(=O)Nc1ccc(Br)cc1` (single isomer, unassigned) [Compound 102, 2-(1-(3-(4-bromophenyl)ureido)ethyl)-4-methylpentanoic acid], for which the EC50 in assay [1] was 1050 nM; in assay [2], 48 nM.
`CC(C)CC(C(=O)O)C(C)NC(=O)Nc1ccc(Br)cc1` (racemic) [Compound 103, 2-(1-(3-(4-bromophenyl)ureido)ethyl)-4-methylpentanoic acid]: the “FPR2 Ga16-CHO (% eff)” value in assay [1] is given as 1.04. Further, in assay [2], the FPR1 Ga16-CHO (% eff) is 97% and the “Ratio FPR2:FPR1 (EC50)” value amounted to 79.
For the compound `CC(C)CC(C(=O)O)C(C)NC(=O)Nc1ccc(Br)cc1` (single isomer, unassigned) [Compound 104, 2-(1-(3-(4-bromophenyl)ureido)ethyl)-4-methylpentanoic acid], in assay [1], the “FPR2 Ga16-CHO (% eff)” value is given as 0.89 and the EC50 came to 855 nM. For the same compound, in assay [2], the EC50 is 51 nM, the FPR1 Ga16-CHO (% eff) amounted to 94% and the “Ratio FPR2:FPR1 (EC50)” value worked out at 17.
On the same counts, the results for `CC(C)CC(C(=O)O)C(C)NC(=O)Nc1ccc(Br)cc1` (single isomer, unassigned) [Compound 107, 2-(1-(3-(4-bromophenyl)ureido)ethyl)-4-methylpentanoic acid] are 0.96, 25 nM, 1.7 nM, 93% and 15.
In the same order, the values of `CC(C)CC(C(=O)OC(C)(C)C)C(C)NC(=O)Nc1ccc(Br)cc1` (single isomer, unassigned) [Compound 100, tert-butyl 2-(1-(3-(4-bromophenyl)ureido)ethyl)-4-methylpentanoate] are 0.75, 3760 nM, 1420 nM, 80% and 2.6.
